From ChEMBL document CHEMBL3085683, “Quinones bearing non-steroidal anti-inflammatory fragments as multitarget ligands for Alzheimer's disease” (Bioorg Med Chem Lett, 2013)
Active and inactive are the calls of the source. The calls are words filed in the database; no cut-off is given here.

Experiments:
[1] = biological target: T1, Amyloid-beta precursor protein (Homo sapiens, UniProt P05067)
Description: Inhibition of amyloid beta (1 to 42) aggregation (unknown origin) by thioflavin T fluorescence method

[2] = biological target: Beta-secretase 1 (Homo sapiens) (UniProt P56817); experiment: Inhibition of human recombinant BACE1 using M-2420 as a substrate at 3 uM […]
[3] = biological target: T2, Acetylcholinesterase (Homo sapiens, UniProt P22303); experiment: Inhibition of human recombinant AChE by Ellman's assay
[4] = biological target: T1, Amyloid-beta precursor protein; experiment: Inhibition of amyloid beta (1 to 42) aggregation (unknown origin) at 10 uM by thioflavin T fluorescence method
[5] = tested on: HEK293; experiment: Cytotoxicity against HEK293 cells assessed as reduction in cell viability up to 10 uM by MTT assay; format: cell-based; details: human
[6] = biological target: T3, Cholinesterase (Homo sapiens, UniProt P06276)
Description: Inhibition of human recombinant BuChE by Ellman's assay

[7] = biological target: T3, Cholinesterase; experiment: Inhibition of human recombinant BuChE hydrolyzing activity at 67 uM by Ellman's assay
[8] = biological target: T3, Cholinesterase; experiment: Inhibition of human recombinant BuChE at 67 uM by Ellman's assay
[9] = species on record: Homo sapiens; experiment: Selectivity ratio of IC50 for human recombinant BuChE to IC50 for human recombinant AChE
[10] = biological target: T2, Acetylcholinesterase; experiment: Inhibition of human recombinant AChE at 67 uM by Ellman's assay
[11] = species on record: Gallus gallus; experiment: Reduction in amyloid beta42 secretion in embryonic chicken primary telencephalon neurons; format: functional
[12] = species on record: Gallus gallus; experiment: Reduction in amyloid beta40 secretion in embryonic chicken primary telencephalon neurons; format: functional
[13] = Cytotoxicity against embryonic chicken primary telencephalon neurons at 25 to 50 uM; set-up: species or system Gallus gallus
[14] = species on record: Gallus gallus; experiment: Reduction in amyloid beta38 secretion in embryonic chicken primary telencephalon neurons; format: functional
[15] = species on record: Homo sapiens; experiment: Selectivity ratio of IC50 for human recombinant AChE to IC50 for human recombinant BuChE

T3 sequence (P06276 whole entry): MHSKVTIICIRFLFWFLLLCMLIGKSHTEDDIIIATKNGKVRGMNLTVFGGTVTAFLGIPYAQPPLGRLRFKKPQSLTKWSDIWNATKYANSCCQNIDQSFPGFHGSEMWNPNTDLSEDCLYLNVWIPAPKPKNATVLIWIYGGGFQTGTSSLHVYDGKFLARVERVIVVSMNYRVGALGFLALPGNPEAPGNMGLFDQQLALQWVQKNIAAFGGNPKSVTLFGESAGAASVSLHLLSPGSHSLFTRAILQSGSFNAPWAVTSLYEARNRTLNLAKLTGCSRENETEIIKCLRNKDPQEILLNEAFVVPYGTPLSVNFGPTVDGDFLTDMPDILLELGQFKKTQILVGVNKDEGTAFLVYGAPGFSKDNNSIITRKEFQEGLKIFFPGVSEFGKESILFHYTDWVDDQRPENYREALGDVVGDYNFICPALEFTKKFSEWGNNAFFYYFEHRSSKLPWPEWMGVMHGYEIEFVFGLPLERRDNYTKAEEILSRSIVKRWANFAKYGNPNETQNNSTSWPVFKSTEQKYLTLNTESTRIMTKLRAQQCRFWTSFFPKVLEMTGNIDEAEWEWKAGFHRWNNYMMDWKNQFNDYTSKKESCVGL
T2 sequence (P22303 whole entry): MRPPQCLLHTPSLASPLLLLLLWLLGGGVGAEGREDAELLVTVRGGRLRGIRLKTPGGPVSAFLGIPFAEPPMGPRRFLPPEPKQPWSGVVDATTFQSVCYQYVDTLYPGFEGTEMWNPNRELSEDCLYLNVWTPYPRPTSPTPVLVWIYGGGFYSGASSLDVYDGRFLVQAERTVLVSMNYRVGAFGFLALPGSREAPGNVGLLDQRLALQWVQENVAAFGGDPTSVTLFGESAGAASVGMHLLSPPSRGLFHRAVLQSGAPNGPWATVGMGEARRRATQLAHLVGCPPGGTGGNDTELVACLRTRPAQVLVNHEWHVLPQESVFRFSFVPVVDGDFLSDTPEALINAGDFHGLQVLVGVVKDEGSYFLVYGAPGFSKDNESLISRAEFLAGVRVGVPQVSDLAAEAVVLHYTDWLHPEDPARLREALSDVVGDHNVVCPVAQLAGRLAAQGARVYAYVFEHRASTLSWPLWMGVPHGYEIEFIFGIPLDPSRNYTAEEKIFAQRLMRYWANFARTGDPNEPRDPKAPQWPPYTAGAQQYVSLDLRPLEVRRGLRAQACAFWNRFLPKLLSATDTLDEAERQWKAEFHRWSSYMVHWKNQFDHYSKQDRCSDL
Sequence of Beta-secretase 1 (Homo sapiens) (P56817 whole entry): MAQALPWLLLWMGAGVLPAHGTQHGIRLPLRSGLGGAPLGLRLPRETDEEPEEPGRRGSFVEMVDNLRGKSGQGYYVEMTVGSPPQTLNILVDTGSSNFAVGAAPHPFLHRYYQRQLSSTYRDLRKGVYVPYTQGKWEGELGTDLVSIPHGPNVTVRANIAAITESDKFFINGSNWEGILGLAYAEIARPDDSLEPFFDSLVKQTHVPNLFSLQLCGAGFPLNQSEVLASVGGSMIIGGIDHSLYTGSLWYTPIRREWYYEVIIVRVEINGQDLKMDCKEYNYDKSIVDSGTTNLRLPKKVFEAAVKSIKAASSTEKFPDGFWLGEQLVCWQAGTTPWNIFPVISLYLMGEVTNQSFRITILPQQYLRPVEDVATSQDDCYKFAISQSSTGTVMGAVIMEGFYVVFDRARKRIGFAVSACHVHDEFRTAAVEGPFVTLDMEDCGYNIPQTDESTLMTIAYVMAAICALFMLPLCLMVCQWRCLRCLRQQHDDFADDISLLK
T1 sequence (P05067 whole entry): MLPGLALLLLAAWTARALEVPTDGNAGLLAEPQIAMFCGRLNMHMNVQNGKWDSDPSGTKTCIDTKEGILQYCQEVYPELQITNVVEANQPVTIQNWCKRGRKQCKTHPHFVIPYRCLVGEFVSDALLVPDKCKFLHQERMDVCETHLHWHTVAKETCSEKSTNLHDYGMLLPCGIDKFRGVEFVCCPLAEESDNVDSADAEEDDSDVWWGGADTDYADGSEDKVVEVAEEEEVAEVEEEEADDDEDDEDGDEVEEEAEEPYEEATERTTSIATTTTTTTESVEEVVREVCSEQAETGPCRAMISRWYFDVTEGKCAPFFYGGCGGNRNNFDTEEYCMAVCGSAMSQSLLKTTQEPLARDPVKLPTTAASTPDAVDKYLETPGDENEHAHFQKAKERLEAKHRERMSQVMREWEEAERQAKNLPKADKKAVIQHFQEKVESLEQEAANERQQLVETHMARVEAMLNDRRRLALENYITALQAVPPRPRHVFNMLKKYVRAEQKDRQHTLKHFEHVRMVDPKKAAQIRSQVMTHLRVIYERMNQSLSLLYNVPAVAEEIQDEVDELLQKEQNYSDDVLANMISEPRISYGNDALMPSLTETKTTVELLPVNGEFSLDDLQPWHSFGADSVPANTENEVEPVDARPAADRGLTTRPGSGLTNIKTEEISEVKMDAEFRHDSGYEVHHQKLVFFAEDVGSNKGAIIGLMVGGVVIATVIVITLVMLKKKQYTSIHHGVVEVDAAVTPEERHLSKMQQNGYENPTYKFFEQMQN

| SMILES | IC50 [1] | inhibition [2] | IC50 [3] | inhibition [4] | Activity [5] | IC50 [6] | inhibition [7] | inhibition [8] | Ratio IC50 [9] | inhibition [10] | Activity [11] | Activity [12] | Activity [13] | Activity [14] | Ratio IC50 [15] |
| --- | --- | --- | --- | --- | --- | --- | --- | --- | --- | --- | --- | --- | --- | --- | --- |
| CCN(CCCCCCNC1=CC(=O)C(NCCCCCCN(CC)Cc2ccccc2OC)=CC1=O)Cc1ccccc1OC [MEMOQUIN] | 5.93 µM |  |  |  |  |  |  |  |  |  |  |  |  |  |  |
| C[C@@H](C(=O)NCCCNCCCNC1=CC(=O)C(NCCCNCCCNC(=O)[C@H](C)c2ccc(-c3ccccc3)c(F)c2)=CC1=O)c1ccc(-c2ccccc2)c(F)c1 | 4.77 µM | 20% | 27.8 µM | 87.2% | Non-toxic | 9.98 µM |  |  |  |  |  |  |  |  |  |
| C[C@H](C(=O)NCCCNCCCNC1=CC(=O)C(NCCCNCCCNC(=O)[C@@H](C)c2ccc(-c3ccccc3)c(F)c2)=CC1=O)c1ccc(-c2ccccc2)c(F)c1 | 4.43 µM | 20% | 2.89 µM | > 90% | Toxic | 7.77 µM |  |  |  |  |  |  |  |  |  |
| COc1ccc2c(c1)c(CC(=O)NCCCNCCCNC1=CC(=O)C(NCCCNCCCNC(=O)Cc3c(C)n(C(=O)c4ccc(Cl)cc4)c4ccc(OC)cc34)=CC1=O)c(C)n2C(=O)c1ccc(Cl)cc1 | 6.11 µM | 20% | 10.3 µM | 80.1% |  | 18.7 µM |  |  |  |  |  |  |  |  |  |
| CC(C)Cc1ccc(C(C)C(=O)NCCCNCCCNC2=CC(=O)C(NCCCNCCCNC(=O)C(C)c3ccc(CC(C)C)cc3)=CC2=O)cc1 (stereo not drawn) | 4.83 µM | 20% | 0.6 µM | 82.6% |  | 22.5 µM | 70% | < 10% | 37.5 | 26.3% |  |  |  |  |  |
| CC(C(=O)NCCCNCCCNC1=CC(=O)c2ccccc2C1=O)c1ccc(-c2ccccc2)c(F)c1 (stereo not drawn) | 6.88 µM | 20% | 107 µM | 76.4% | Non-toxic | 16.4 µM |  |  |  |  | Active | Active | Toxic | Active |  |
| CC(C(=O)NCCCNC1=CC(=O)C(NCCCNC(=O)C(C)c2ccc(-c3ccccc3)c(F)c2)=CC1=O)c1ccc(-c2ccccc2)c(F)c1 (stereo not drawn) |  | 20% | > 20 µM | 12.7% |  | 116 µM |  |  |  |  |  |  |  |  |  |
| CC1=C(CC(=O)NCCCNCCCNC2=CC(=O)C(NCCCNCCCNC(=O)CC3=C(C)/C(=C\c4ccc([S+](C)[O-])cc4)c4ccc(F)cc43)=CC2=O)c2cc(F)ccc2/C1=C/c1ccc([S+](C)[O-])cc1 (stereo not drawn) | 8.18 µM | 20% | 9.54 µM | 55% |  | 14.7 µM |  |  |  |  |  |  |  |  |  |
| CC(C(=O)NCCCCCCNC1=CC(=O)C(NCCCCCCNC(=O)C(C)c2ccc(-c3ccccc3)c(F)c2)=CC1=O)c1ccc(-c2ccccc2)c(F)c1 (stereo not drawn) |  | 20% | > 20 µM |  |  | > 20 µM |  |  |  |  |  |  |  |  |  |
| O=C(Cc1ccccc1Nc1c(Cl)cccc1Cl)NCCCNCCCNC1=CC(=O)C(NCCCNCCCNC(=O)Cc2ccccc2Nc2c(Cl)cccc2Cl)=CC1=O | 3.15 µM | 20% | 15.4 µM | 74.9% | Non-toxic | 0.36 µM |  |  |  |  |  |  |  |  | 42.8 |
| CC(C(=O)NCCCNCCCNC1=CC(=O)C(NCCCNCCCNC(=O)C(C)c2ccc(-c3ccccc3)c(F)c2)=CC1=O)c1ccc(-c2ccccc2)c(F)c1 (racemic) |  | 20% |  | > 90% |  |  |  |  |  |  |  |  |  |  |  |
